For orientation: EC50 means the concentration needed to bring the measured effect to its halfway point. A lower EC50 goes with an effect from little substance.

The values that follow come from US20210236529A1, “MULTI-TARGETED COMPOSITIONS FOR MITIGATING ACUTE RESPIRATORY DISTRESS SYNDROME” (priority 2020, published 2021).

The target of assay [1] is SARS-CoV-2 RNA Polymerase (RdRp) (Severe acute respiratory syndrome coronavirus 2, UniProt P0DTD1). Nature of the assay: SARS-CoV-2 RNA Polymerase (RdRp) Assay Kit, fluorescent enzymatic activity in vitro. The class given is biochemical. To be noted: for RdRp activity, % of Control: vs water control; for inhibition of SARS-CoV-2 RNA replication (in words): summary of Tables 1 and 2.

The test system of a further assay is IL-6. Nature of the assay: IL-6 in conditioned medium of 3D ciliated airway tissues, sandwich ELISA. It counts as cell-based, human. To be noted: LPS 1 μg/ml, 72 h total contact. The procedure: (§1) A second study was undertaken to assess the ability of the select hydrolysable tannins to inhibit select pro-inflammatory interleukins, namely IL-6 and IL-8. The study was conducted using reconstituted human ciliated airway tissue. Specifically, Ninety Six 3D ciliated airway tissues (cat. #34839) were obtained from Mattek (Ashland, Mass.) and were cultured in Assay Media (cat. #031921JRD, MatTek). The tissue samples were rinsed twice before incubation with the MTT reagents. The test materials themselves were solubilized and diluted in sterile distilled water and added to the feeder chamber medium contacting the basal side of the tissues on Day 1. The test material was also applied topically on Day 2 together with LPS (added where indicated at 1 μg/ml, from Escherichia coli 0113, Cayman Chemical Company, Ann Arbor, Mich.) for total contact time of 72 h. The experiments were tested in triplicates or duplicates.
(§2) Following the exposures to the test materials, 1L-6 and IL-8 were quantified in the tissue culture—conditioned medium by sandwich ELISA (Table 4A and 4B). The effect of the test materials on mitochondrial metabolism was measured by the MTT assay, which quantifies the activity of mitochondrial dehydrogenases, such as succinate dehydrogenase, implicated in the respiratory electron transport chain in mitochondria. The MTT conversion values were also used to standardize the IL-6, IL-8 output data to tissue viability.

The test system of another assay is IL-8. Nature of the assay: IL-8 in conditioned medium of 3D ciliated airway tissues, sandwich ELISA. To be noted: LPS 1 μg/ml, 72 h total contact. It counts as cell-based, human. The procedure:
as §1, §2
Background: ELISA stands for enzyme-linked immunosorbent assay.

Another assay relates to Covid-19 patients. To be noted: after treatment; preliminary findings, 21 patients; cited from earlier work.
[2] abbreviates: 100 μg test material (0.209-0.213 μM).
Setting [3] is: 10 μgm/ml, standardized to MTT viability.
[4] abbreviates: 10 μg/ml, standardized to MTT viability.

Regarding `O=C(O)C[C@@H]1C(=O)O[C@H]2[C@@H]3OC(=O)c4cc(O)c(O)c(O)c4-c4c(cc(O)c(O)c4O)C(=O)OC[C@H]2O[C@@H](OC(=O)c2cc(O)c(O)c(O)c2)[C@@H]3OC(=O)c2cc(O)c(O)c3c2[C@H]1[C@H](O)C(=O)O3` [Chebulagic acid], the “RdRp activity, % of Control” value in assay [1] (10 μg test material) is recorded as 35 % of Control; in assay [1] (50 μg test material) it was 10 % of Control; in assay [1] (setting [2]), 8 % of Control. Moreover, the “inhibition of SARS-CoV-2 RNA replication (in words)” value (“inhibition” for short) in assay [1] is reported as “marked inhibition”. In addition, the “IL-6, % of Control” value in the assay on IL-6 (setting [3]) is on record as 70 % of Control; with IL-6 (50 μgm/ml), 40 % of Control; with IL-6 (200 μgm/ml), 5 % of Control. Further, the figures for the “IL-8, % of Control” value in the assay with IL-8 (setting [4]), with IL-8 (50 μg/ml) and with IL-8 (200 μg/ml) were 112 % of Control, 100 % of Control and 66 % of Control, respectively.
On to `O=C(O)C[C@H](C(=O)O)[C@H]1c2c(cc(O)c(O)c2O)C(=O)O[C@@H]1C(=O)O` [Chebulic acid, reference compound], for which the “RdRp activity, % of Control” value in assay [1] (10 μg test material) is 105 % of Control; in assay [1] (50 μg test material), 96 % of Control. Besides, the “inhibition” value in assay [1] was “neither Lopinavir, a commercial inhibitor of viral RNA replication, nor chebulic acid manifested effective inhibition”. Moreover, the “IL-6, % of Control” value was 68 % of Control with IL-6 (setting [3]), 106 % of Control in the assay on IL-6 (50 μgm/ml) and 78 % of Control in the assay with IL-6 (100 μgm/ml). Further, the “IL-8, % of Control” value is given as 96 % of Control with IL-8 (setting [4]), 108 % of Control with IL-8 (50 μg/ml) and 111 % of Control with IL-8 (100 μg/ml).
Take `O=C(O)C[C@H]1C(=O)O[C@H]2[C@H](OC(=O)c3cc(O)c(O)c(O)c3)[C@@H](OC(=O)c3cc(O)c(O)c4c3[C@H]1[C@H](O)C(=O)O4)[C@H](OC(=O)c1cc(O)c(O)c(O)c1)O[C@@H]2COC(=O)c1cc(O)c(O)c(O)c1` [Chebulinic acid]: the results for the “RdRp activity, % of Control” value in assay [1] (10 μg test material), in assay [1] (50 μg test material) and in assay [1] (setting [2]) were 25 % of Control, 14 % of Control and 7 % of Control, respectively. Besides, the “inhibition” value in assay [1] was “marked inhibition”. For the same molecule, the “IL-6, % of Control” value with IL-6 (setting [3]) is 131 % of Control; in the assay with IL-6 (50 μgm/ml) it was 96 % of Control; in the assay on IL-6 (200 μgm/ml), 18 % of Control. The figures for the “IL-8, % of Control” value with IL-8 (setting [4]), in the assay on IL-8 (50 μg/ml) and in the assay on IL-8 (200 μg/ml) were 114 % of Control, 109 % of Control and 101 % of Control, respectively.
In assay [1], `Cc1cccc(C)c1OCC(=O)N[C@@H](Cc1ccccc1)[C@@H](O)C[C@H](Cc1ccccc1)NC(=O)[C@H](C(C)C)N1CCCNC1=O` [Lopinavir, reference compound] had an EC50 above 50 µM. Moreover, the results for the “RdRp activity, % of Control” value in assay [1] (10 μM) and in assay [1] (50 μM) were 91 % of Control and 80 % of Control, respectively. In addition, in assay [1], the “inhibition” value is reported as “neither Lopinavir, a commercial inhibitor of viral RNA replication, nor chebulic acid manifested effective inhibition”. The “IL-6, % of Control” value with IL-6 (10 μM) is 73 % of Control; in the assay on IL-6 (50 μM), 81 % of Control. The “IL-8, % of Control” value in the assay on IL-8 (10 μM) is 103 % of Control; in the assay with IL-8 (50 μM) it was 104 % of Control.
Turning to `O=C(OC[C@H]1O[C@@H](OC(=O)c2cc(O)c(O)c(O)c2)[C@H](OC(=O)c2cc(O)c(O)c(O)c2)[C@@H](OC(=O)c2cc(O)c(O)c(O)c2)[C@@H]1OC(=O)c1cc(O)c(O)c(O)c1)c1cc(O)c(O)c(O)c1` [Pentagallolyl glucose, Pentagalloyl glucose], the “RdRp activity, % of Control” value is recorded as 32 % of Control in assay [1] (10 μg test material), 12 % of Control in assay [1] (50 μg test material) and 4 % of Control in assay [1] (setting [2]). Besides, the “inhibition” value in assay [1] is reported as “marked inhibition”. Besides, the “IL-6, % of Control” value is listed as 91 % of Control with IL-6 (setting [3]), 64 % of Control in the assay with IL-6 (50 μgm/ml) and 0 % of Control in the assay with IL-6 (200 μgm/ml). In addition, the results for the “IL-8, % of Control” value in the assay on IL-8 (setting [4]), in the assay with IL-8 (50 μg/ml) and with IL-8 (200 μg/ml) were 100 % of Control, 104 % of Control and 0 % of Control, respectively.
Take “Actemra: a humanized anti-IL-6R monoclonal antibody”: in the assay on Covid-19 patients, the “patients experiencing a reduced need for supplemental oxygen” value is listed as 75%.
